Experimental data published in US9096596B2 (Janssen Pharmaceutica NV, priority 2013, dated 2015).

What was measured:
[1] = biological target: T1, rat P2X7 (Rattus norvegicus (Rat), UniProt Q64663); experiment: Radioligand binding, rat P2X7-1321N1 cell membranes, tracer tritiated A-804598; settings: rat P2X7-1321N1 membranes; 1 hour at 4° C.; IC50 corrected for tracer concentration and affinity
Method: (§1) On the day of the experiment, cell membrane preparations were made according to standard published methods. […] The compound can be prepared as described in the literature. […] The assay was terminated by filtration (GF/B filters pre-soaked with 0.3% PEI) and washed with washing buffer (Tris-HCl 50 mM). The IC50 generated in the binding assay was corrected for tracer concentration and affinity of the tracer to derive at the affinity (Ki) of the test compounds.

[2] = biological target: T2, P2X7 (Homo sapiens (Human), UniProt Q99572); experiment: Ca2+ flux (FLIPR) in 1321N1 cells expressing recombinant human P2X7 channel; assay type: cell-based; settings: 250 μM BzATP, Calcium-4 dye
T2 sequence (Q99572 whole entry): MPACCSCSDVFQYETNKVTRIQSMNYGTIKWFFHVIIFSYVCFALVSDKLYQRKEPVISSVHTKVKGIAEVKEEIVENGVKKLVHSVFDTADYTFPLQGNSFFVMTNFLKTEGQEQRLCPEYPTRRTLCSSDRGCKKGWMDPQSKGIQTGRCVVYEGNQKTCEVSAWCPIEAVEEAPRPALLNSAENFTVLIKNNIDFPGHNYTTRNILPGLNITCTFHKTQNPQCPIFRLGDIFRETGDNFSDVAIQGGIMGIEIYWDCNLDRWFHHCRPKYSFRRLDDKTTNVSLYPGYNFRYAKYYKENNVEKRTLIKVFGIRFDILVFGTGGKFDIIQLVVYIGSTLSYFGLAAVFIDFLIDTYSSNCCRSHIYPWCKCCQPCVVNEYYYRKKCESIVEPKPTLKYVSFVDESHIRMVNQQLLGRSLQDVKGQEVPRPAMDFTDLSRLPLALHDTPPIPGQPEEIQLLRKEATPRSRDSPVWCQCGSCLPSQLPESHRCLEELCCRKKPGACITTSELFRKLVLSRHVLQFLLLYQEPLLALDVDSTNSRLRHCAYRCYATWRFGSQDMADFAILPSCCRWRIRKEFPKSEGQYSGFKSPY
Outline: (§2)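 1321N1 cells stably expressing P2X7 were loaded with Calcium-4 dye for 60 min in HEPES-buffered saline (pH 7.40, 1 mM CaCl2, 1 mM MgCl2), then preincubated with test compounds for 30 min. Fluorescence change was read 180 s after agonist addition.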

[3] = biological target: T1, rat P2X7; experiment: Ca2+ flux (FLIPR) in 1321N1 cells expressing recombinant rat P2X7 channel; assay type: cell-based; settings: 250 μM BzATP, Calcium-4 dye
Outline: as §2

[4] = biological target: T2, P2X7; experiment: P2X7 antagonism in human whole blood (IL-1β release, ELISA); assay type: cell-based; settings: IL-1β release in human blood, LPS 30 ng/ml + Bz-ATP 1 mM
Method: Human blood was collected using a blood donor program. […] Cells were incubated for an additional 1.5 hours.

[5] = biological target: T2, P2X7; experiment: Radioligand binding, human P2X7-1321N1 cell membranes, tracer tritiated A-804598; settings: human P2X7-1321N1 membranes; 1 hour at 4° C.; IC50 corrected for tracer concentration and affinity
Method: as §1

[6] = biological target: T2, P2X7; experiment: P2X7 antagonism in human PBMCs (IL-1β release, ELISA); assay type: cell-based; settings: test compound 10 μM, IL-1β release in human PBMCs, LPS 30 ng/ml + Bz-ATP 0.5 mM, read-out: PBMC 10 μM (% control)
Method: Human blood was collected using a blood donor program. […] Cells were incubated for an additional 1.5 hours. […] In Table 2, when the data cell has been left blank, it is intended to mean that the compound was not tested in that assay.

T1 sequence (Q64663 whole entry): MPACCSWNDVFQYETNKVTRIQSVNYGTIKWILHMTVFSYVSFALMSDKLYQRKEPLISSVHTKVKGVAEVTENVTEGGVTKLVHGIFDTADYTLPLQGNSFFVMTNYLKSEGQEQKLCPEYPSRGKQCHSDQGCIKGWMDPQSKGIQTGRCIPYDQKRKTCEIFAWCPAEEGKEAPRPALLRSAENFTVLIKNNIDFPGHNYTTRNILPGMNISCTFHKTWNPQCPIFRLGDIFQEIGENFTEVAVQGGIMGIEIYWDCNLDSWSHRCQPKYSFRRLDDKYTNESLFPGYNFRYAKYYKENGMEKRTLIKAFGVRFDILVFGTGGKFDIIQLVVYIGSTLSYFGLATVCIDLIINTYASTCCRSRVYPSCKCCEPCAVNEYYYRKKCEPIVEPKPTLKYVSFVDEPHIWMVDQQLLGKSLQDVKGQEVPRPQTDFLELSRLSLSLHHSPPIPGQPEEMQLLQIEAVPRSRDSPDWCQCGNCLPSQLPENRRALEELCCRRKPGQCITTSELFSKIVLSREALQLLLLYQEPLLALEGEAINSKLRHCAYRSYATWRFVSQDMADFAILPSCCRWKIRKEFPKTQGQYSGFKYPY

| Ki [1] [nM] | IC50 [2] [nM] | IC50 [3] [nM] | IC50 [4] [nM] | Ki [5] [nM] | remaining activity at 10 µM [6] [%] | SMILES |
| --- | --- | --- | --- | --- | --- | --- |
| 14.5 | 20.7 | 489 | 560 | 15.4 |  | O=C(c1cccc(Cl)c1Cl)N1CCc2c(ncnc2-c2ccn[nH]2)C1 [Example 7, 7-[(2,3-Dichlorophenyl)carbonyl]-4-(1H-pyrazol-5-yl)-5,6,7,8-tetrahydropyrido[3,4-d]pyrimidine] |
| 57.5 | 28.1 | 5970 | 2000 | 58.9 |  | O=C(c1cccc(C(F)(F)F)c1Cl)N1CCc2c(ncnc2-c2ccccn2)C1 [Example 12, 7-{[2-Chloro-3-(trifluoromethyl)phenyl]carbonyl}-4-pyridin-2-yl-5,6,7,8-tetrahydropyrido[3,4-d]pyrimidine] |
|  | 26.1 | 9.9 | 630 | 25.1 | 13.8 | Cn1ccc(-c2ncnc3c2CCN(C(=O)c2cccc(C(F)(F)F)c2Cl)C3)n1 [Example 19, 7-{[2-Chloro-3-(trifluoromethyl)phenyl]carbonyl}-4-(1-methyl-1H-pyrazol-3-yl)-5,6,7,8-tetrahydropyrido[3,4-d]pyrimidine] |
| 3.5 | 5.9 | 338 | 1230 | 25.1 | -0.2 | O=C(c1ccc(Cl)c(F)c1Cl)N1CCc2c(ncnc2-c2ccn[nH]2)C1 [Example 20, 7-[(2,4-Dichloro-3-fluorophenyl)carbonyl]-4-(1H-pyrazol-5-yl)-5,6,7,8-tetrahydropyrido[3,4-d]pyrimidine] |
|  |  |  | 1120 |  |  | O=C(c1cccc(Cl)c1Cl)N1CCc2c(ncnc2-n2nccn2)C1 [Example 23, 7-[(2,3-Dichlorophenyl)carbonyl]-4-(2H-1,2,3-triazol-2-yl)-5,6,7,8-tetrahydropyrido[3,4-d]pyrimidine] |
| 12 | 8 | 1110 | 1120 | 16.4 |  | Cc1nc2c(c(-c3ccn[nH]3)n1)CCN(C(=O)c1cccc(C(F)(F)F)c1Cl)C2 [Example 33, 7-{[2-Chloro-3-(trifluoromethyl)phenyl]carbonyl}-2-methyl-4-(1H-pyrazol-5-yl)-5,6,7,8-tetrahydropyrido[3,4-d]pyrimidine] |
| 12.6 | 48.3 | 269 |  | 39.8 |  | Cc1nc2c(c(-c3[nH]ncc3F)n1)CCN(C(=O)c1cccc(C(F)(F)F)c1Cl)C2 [Example 35, 7-{[2-Chloro-3-(trifluoromethyl)phenyl]carbonyl}-4-(4-fluoro-1H-pyrazol-5-yl)-2-methyl-5,6,7,8-tetrahydropyrido[3,4-d]pyrimidine] |
| 17.8 | 100 | 25.1 |  | 50.1 |  | Cc1nc2c(c(-c3[nH]ncc3C(F)(F)F)n1)CCN(C(=O)c1cccc(C(F)(F)F)c1Cl)C2 [Example 39, 7-{[2-Chloro-3-(trifluoromethyl)phenyl]carbonyl}-2-methyl-4-[4-(trifluoromethyl)-1H-pyrazol-5-yl]-5,6,7,8-tetrahydropyrido[3,4-d]pyrimidine] |
| 10 | 15.8 | 158 |  | 50.1 |  | O=C(c1cccc(C(F)(F)F)c1Cl)N1CCc2c(ncnc2-c2cscn2)C1 [Example 43, 7-{[2-Chloro-3-(trifluoromethyl)phenyl]carbonyl}-4-(1,3-thiazol-4-yl)-5,6,7,8-tetrahydropyrido[3,4-d]pyrimidine] |
| 24 | 4.5 | 2480 | 1120 | 9.5 |  | O=C(c1cccc(Cl)c1Cl)N1CCc2c(ncnc2-n2nccn2)C1 [Example 107, 7-[(2,3-Dichlorophenyl)carbonyl]-4-(2H-1,2,3-triazol-2-yl)-5,6,7,8-tetrahydropyrido[3,4-d]pyrimidine] |
